# Assay results as given in publication PMC12650180, “Discovery of Drug-like Inhibitors of the Human Caf1/CNOT7 poly(A)-Selective Nuclease Using Compound Screening” (Biomolecules, 2025).
# Biological target: human Caf1/CNOT7 (Homo sapiens, UniProt Q9UIV1)
# Test: Fluorescence-based Caf1/CNOT7 nuclease activity assay (Flc-RNA substrate, TAMRA-labelled DNA probe)
# Type: biochemical
# Conditions: mean ± standard deviation; 0.4 μM Caf1/CNOT7, 0.1 μM Flc-RNA substrate, 15 min preincubation, 60 min at 30 °C
# Description: Compounds (10 mM in DMSO) were stored in a dry, inert environment at −20 °C in an automated sample management system (comPOUND, TTP Labtech Technology, Melbourn, UK). After dispensing aliquots in 96-well plates, compounds were diluted to 0.5 mM in 20% DMSO/water. Aliquots ([…]; […]) were transferred to black U-well 384-well plates (Greiner Bio-One, Kremsmünster, Austria) using a multichannel pipette. Subsequent screening was carried out as described before with modifications for use with a Biomek 3000 liquid handler (Beckman Coulter, Brea, CA, USA). First, enzyme (8 μL containing 1.0 μM Caf1/CNOT7, 50 mM Tris–HCl pH 7.9, 125 mM NaCl, 5 mM MgCl2, 25% glycerol, 2.5 mM β-mercaptoethanol) was added. After mixing, the mixture was left at room temperature for 15 min before the addition of RNA substrate (8 μL; 0.25 μM Flc-RNA substrate in H2O). The composition of the final reaction mixture was: 0.4 μM Caf1/CNOT7, 0.1 μM Flc-RNA substrate, 20 mM Tris–HCl pH 7.9, 50 mM NaCl, 2 mM MgCl2, 10% glycerol, 1 mM β-mercaptoethanol, 5% DMSO, and 100 μM library compound. After incubation at 30 °C for 60 min, 20 μL probe mix (5 μM DNA probe, 1% SDS, 20 mM Tris–HCl pH 8.0, 0.5 mM EDTA) was added. Fluorescence was measured using a BioTek Synergy HT plate reader using the following filters: 485 ± 20 nm (excitation) and 528 ± 20 nm (emission). Hits were identified following data analysis in Microsoft Excel. Screening data was visualised using GraphPad Prism (version 10.4.0).
# Reaction conditions and fluorescence measurements were as described above and before. Non-linear regression was carried out using GraphPad Prism 5.0. IC50 values were typically determined using three independent experiments, each containing three replicates.
# To discover new inhibitors of the Caf1/CNOT7 nuclease subunit of the Ccr4–Not complex, we screened a sub-set of the Nottingham Managed Chemical Compound Collection, which contains over 83,000 synthetic compounds that are commercially available and were selected based on chemical diversity and drug-like properties. A representative sub-set of 10,880 compounds was selected and screened in duplicate in a 384-well plate format (Figure 1A). The library compounds were screened using a fluorescence-based activity assay that was developed previously. Briefly, purified Caf1/CNOT7 enzyme was pre-incubated with library compounds. This was followed by the addition of a 5′ fluorescein-labelled RNA oligonucleotide containing a stretch of nine adenosine residues at the 3′ end that served as substrate for Caf1/CNOT7. After incubation, the reaction was terminated and a 3′ TAMRA-labelled DNA probe complementary to the substrate was added. […] However, in case Caf1/CNOT7 was inhibited, the substrate remained intact, resulting in annealing of the DNA probe and quenching of fluorescence due to the close vicinity of the fluorescein and TAMRA fluorophores (Figure 1B).
# Figure 3 Determination of the IC50 values of small-molecule inhibitors of Caf1/CNOT7. Compounds were preincubated with Caf1/CNOT7 for 15 min at room temperature, followed by the addition of RNA substrate. After incubation (60 min at 30 °C), reactions were stopped by the addition of SDS and a 5-fold molar excess of DNA probe. The mean values for each independent experiment were plotted (Open square, experiment 1; closed circle, experiment 2; diamond, experiment 3).
# Chain of human Caf1/CNOT7 (Q9UIV1 whole entry): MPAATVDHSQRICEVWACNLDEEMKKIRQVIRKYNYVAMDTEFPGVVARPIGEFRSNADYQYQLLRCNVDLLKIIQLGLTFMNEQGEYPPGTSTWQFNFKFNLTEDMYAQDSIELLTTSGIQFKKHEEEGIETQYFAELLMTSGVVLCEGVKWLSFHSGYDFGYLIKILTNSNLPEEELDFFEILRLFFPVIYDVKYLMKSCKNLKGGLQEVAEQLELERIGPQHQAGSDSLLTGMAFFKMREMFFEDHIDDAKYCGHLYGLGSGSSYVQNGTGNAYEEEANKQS
row,Structure (SMILES),IC50
1,CC(C)CCn1c(SCC(=O)NC(N)=O)nc2cc(Cl)ccc2c1=O [Compound 11],15.6 ± 3.2 µM
2,O=C(COC(=O)Cc1ccc(-c2ccccc2)cc1)NC(=O)c1cccs1 [Compound 21],78.3 ± 9.5 µM
3,O=C(Nc1nc(-c2ccc(Cl)s2)cs1)c1ccc(O)nc1 [Compound 19],161 ± 13.7 µM
4,N#Cc1cc(C#N)c(SCc2nnc(-c3cccs3)o2)nc1N [Compound 12],21.3 ± 4.6 µM
5,N#Cc1cccc(NC(=O)C(C#N)c2nc3ccccc3s2)c1 (centres unmarked) [Compound 9],18.4 ± 5.9 µM
6,Cc1ccc2nc(NC(=O)c3cc(Br)c[nH]3)sc2c1 [Compound 1],17.8 ± 0.1 µM
7,O=S(=O)(Nc1ccc(SC(F)F)cc1)c1cnn(-c2ccccc2)c1 [Compound 17],77.7 ± 0.3 µM
8,CC(NC(=O)c1ccoc1)C(=O)Nc1cc(-c2cc(Cl)cc(Cl)c2)[nH]n1 (centres unmarked) [Compound 6],19.7 ± 2.5 µM
9,CC(=O)Nc1cccc(NC2=NN=C(c3cc(C)[nH]c3C)CS2)c1 [Compound 10],17.3 ± 1.1 µM
10,CC(C)c1ccc(-c2nnn(CC(=O)NC(=O)NCc3ccccc3)n2)cc1 [Compound 7],17.4 ± 2.7 µM
11,CC(=O)c1c(C)[nH]c(C(=O)Nc2nnc(Cc3ccccc3)s2)c1C [Compound 3],20.7 ± 0.9 µM
12,Cc1ccc(CN(Cc2ccc(C)n2C)C(=O)COc2ccccc2C#N)n1C [Compound 15],24.4 ± 9.2 µM

# Second part, the compound after the results:
row,IC50,Structure (SMILES)
1,256 ± 20.4 µM,O=C(Nc1cc(Br)cnc1O)c1ccc2ccccc2c1 [Compound 20]
2,16.8 ± 2.1 µM,Cc1cc(NC(=O)NC2(C(F)(F)F)Oc3ccc(Cl)cc3O2)no1 (centres unmarked) [Compound 4]
3,57.3 ± 10.1 µM,CCOC(=O)Cc1ncccc1C(=O)Nc1ccc(Br)c(C(F)(F)F)c1 [Compound 18]
4,18.9 ± 4.3 µM,Cc1cccc2sc(NC(=O)CCC(=O)c3ccc(F)cc3)nc12 [Compound 8]
5,14.5 ± 10.7 µM,CC(C)NC(=O)Nc1cccc(C(=O)Nc2ccc3oc(C(F)(F)F)nc3c2)c1 [Compound 13]
6,122 ± 10.7 µM,Cc1sc2nc(COC(=O)Cn3cc(C(F)(F)F)ccc3=O)nc(N)c2c1C [Compound 16]
7,17.5 ± 4.2 µM,O=C(Cc1c[nH]c2ccccc12)OCc1ccc(F)cc1Cl [Compound 5]
8,19.5 ± 3.4 µM,Cc1ccc(NC(=O)c2c[nH]nc2-c2ccc(Cl)cc2)nc1 [Compound 2]
